Results on 20 molecules are retold here after US12630829B2, “Gene encoding cytochrome P450 and use thereof” (KUMIAI CHEMICAL INDUSTRY CO., LTD., priority 2020, dated 2026).

Structures can show the parent of a compound that is named as a salt.

Series [1] has as its system Arabidopsis thaliana having AK454412 introduced thereinto and wild type. Briefly: Test of sensitivity to various drugs, AK454412-introduced versus wild type Arabidopsis thaliana. The series is classed as in vivo. The following applies: evaluated subjectively based on drug concentration exhibiting the effect; 0, 0.1, 1, 10, 100, 1,000 nM. How it is done: Therefore, similar tests were performed on compounds having various acting properties described in HRAC including these sulfonylurea-based ALS inhibitors to search for a compound that can be metabolically degraded by AK454412. Specifically, 61 compounds arbitrarily selected from all of the 25 classifications of HRAC 2020 were subjected to sensitivity examination in Arabidopsis thaliana having AK454412 introduced thereinto and wild type. The sensitivity to each of the drugs was evaluated subjectively with respect to every acting symptom.
As a result, compounds found to have a difference in the sensitivity between the wild type and the recombinant Arabidopsis thaliana are illustrated in FIGS. 10-1 to 10-4. It is noted that concentrations of the drug in respective wells of a plate shown in each photograph in FIGS. 10-1 to 10-4 are 0, 0.1, and 1 nM in the stated order in the rightward direction in an upper portion, and 10, 100, and 1,000 nM in the stated order in the rightward direction in a lower portion. Besides, the compound found to have a sensitivity difference are listed below.

The subject of another series is CYP81A6. The settings on record: reported so far; cited from earlier work.
For series [2] the following is noted: main metabolite of fenquinotrione in a wheat body; cited from earlier work.

As to `CS(=O)(=O)NC(=O)c1cc(Oc2ccc(C(F)(F)F)cc2Cl)ccc1[N+](=O)[O-]` [fomesafen], the “approximate sensitivity difference between wild type and recombinant Arabidopsis thaliana” value in series [1] is 3.
For `O=C(Nc1ccc(F)cc1)c1cccc(Oc2cccc(C(F)(F)F)c2)n1` [picolinafen], the “approximate sensitivity difference between wild type and recombinant Arabidopsis thaliana” value in series [1] came out at 2.
Still for that read-out and setting: the figure for `CCC(CC)Nc1c([N+](=O)[O-])cc(C)c(C)c1[N+](=O)[O-]` [pendimethalin] is < 100; for `CNc1cnn(-c2cccc(C(F)(F)F)c2)c(=O)c1Cl` [norflurazon] it is 2.
As to `CC(C)C1(C)N=C(c2nc3ccccc3cc2C(=O)O)NC1=O` (centres unmarked) [imazaquin], the “approximate sensitivity difference between wild type and recombinant Arabidopsis thaliana” value in series [1] is reported as ≤ 10.
Turning to `COC(=O)c1ccccc1S(=O)(=O)NC(=O)Nc1nc(C)cc(C)n1` [sulfometuron-methyl], the “approximate sensitivity difference between wild type and recombinant Arabidopsis thaliana” value in series [1] was 5.
In the case of `CO/N=C(/C)c1cccc(Oc2nc(OC)cc(OC)n2)c1C(=O)OC` [pyriminobac-methyl], the “metabolic reactivity of CYP81A6 against the compound” value (shortened to “metabolic reactivity of CYP81A6”) in the series on CYP81A6 is reported as “exhibits metabolic reactivity”.
As to `O=C(Nc1ccc(F)cc1F)c1cccnc1Oc1cccc(C(F)(F)F)c1` [diflufenican], in series [1], the “approximate sensitivity difference between wild type and recombinant Arabidopsis thaliana” value is given as 2.
For fluridone, in series [1], the “approximate sensitivity difference between wild type and recombinant Arabidopsis thaliana” value was found to be 2.
As for `COC(=O)c1ccccc1CS(=O)(=O)NC(=O)Nc1nc(OC)cc(OC)n1` [bensulfuron-methyl], in series [1], the “approximate sensitivity difference between wild type and recombinant Arabidopsis thaliana” value was found to be 10. Besides, in the series with CYP81A6, the “metabolic reactivity of CYP81A6” value was “exhibits metabolic reactivity”.
Regarding oxadiargyl, the “approximate sensitivity difference between wild type and recombinant Arabidopsis thaliana” value in series [1] was 2.
Take `CC(C)N1C(=O)c2ccccc2NS1(=O)=O` [bentazone]: the “approximate sensitivity difference between wild type and recombinant Arabidopsis thaliana” value in series [1] is < 5. For the same molecule, in the series with CYP81A6, the “metabolic reactivity of CYP81A6” value is listed as “exhibits metabolic reactivity”.
Take `COc1cnc(OC)n2nc(NS(=O)(=O)c3c(OCC(F)F)cccc3C(F)(F)F)nc12` [penoxsulam]: in series [1], the “approximate sensitivity difference between wild type and recombinant Arabidopsis thaliana” value is 100.
With `COc1cc(OC)nc(Oc2cccc(Oc3nc(OC)cc(OC)n3)c2C(=O)[O-])n1.[Na+]` [Bispyribac-sodium salt, bispyribac-sodium salt], the “approximate sensitivity difference between wild type and recombinant Arabidopsis thaliana” value in series [1] is < 5.
For the molecule `CCOC(=O)COc1cc(-c2nn(C)c(OC(F)F)c2Cl)c(F)cc1Cl` [pyraflufen-ethyl], the “approximate sensitivity difference between wild type and recombinant Arabidopsis thaliana” value in series [1] came out at 10.
Same read-out and setting: the value for `COc1cc(OC)nc(Sc2cccc(Cl)c2C(=O)O)n1` [pyrithiobac-sodium salt] was 100.
On to `O=C1CCCC(=O)C1C(=O)c1nc2c(Cl)cccc2n(-c2ccc(O)cc2)c1=O` [demethylated product of fenquinotrione], for which, in series [2], the herbicidal activity entry is “does not exhibit herbicidal activity”.
Take `Cc1nn(-c2cc(NS(C)(=O)=O)c(Cl)cc2Cl)c(=O)n1C(F)F` [sulfentrazone]: in series [1], the “approximate sensitivity difference between wild type and recombinant Arabidopsis thaliana” value is recorded as 10.
Regarding `COCc1cccc(C(O)c2nc(OC)cc(OC)n2)c1NS(=O)(=O)C(F)F` (centres unmarked) [pyrimisulfan], the “approximate sensitivity difference between wild type and recombinant Arabidopsis thaliana” value in series [1] is 100. Also, in the series with CYP81A6, the “metabolic reactivity of CYP81A6” value was “exhibits metabolic reactivity”.
Turning to `COC(=O)NS(=O)(=O)c1ccc(N)cc1` [asulam], in series [1], the “approximate sensitivity difference between wild type and recombinant Arabidopsis thaliana” value is listed as < 10.
